ChEMBL document CHEMBL6109095, “Impact of fixed phosphorus position on activity of triazole bisphosphonates as geranylgeranyl diphosphate synthase inhibitors” (Bioorg Med Chem, 2025)
Calls of active or inactive are those of the source. No cut-off for these calls is given here.

biological target: T1, Geranylgeranyl pyrophosphate synthase (Homo sapiens) (UniProt O95749); test: Inhibition of GGDPS in human RPMI-8226 cells assessed as lowest effective concentration required to show unmodified Rap1a band measured after 48 hrs by immunoblot analysis; type: cell-based; settings: not given
T1 sequence (whole entry): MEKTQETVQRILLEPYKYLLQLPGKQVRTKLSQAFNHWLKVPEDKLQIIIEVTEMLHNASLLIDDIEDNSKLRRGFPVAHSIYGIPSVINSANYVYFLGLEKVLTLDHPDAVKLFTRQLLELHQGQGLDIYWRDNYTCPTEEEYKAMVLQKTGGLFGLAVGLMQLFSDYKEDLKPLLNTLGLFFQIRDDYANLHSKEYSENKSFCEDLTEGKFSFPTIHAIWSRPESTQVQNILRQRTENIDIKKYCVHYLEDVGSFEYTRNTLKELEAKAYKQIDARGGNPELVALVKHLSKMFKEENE

Question: For CC(C)=CCC/C(C)=C/CCn1cc(C2CC2(P(=O)(OCOC(=O)C(C)(C)C)OCOC(=O)C(C)(C)C)P(=O)(OCOC(=O)C(C)(C)C)OCOC(=O)C(C)(C)C)nn1 (configuration not stated), which LED is on record?
Answer: 5 µM

Question: How did the LED turn out when CC(C)=CCCC(C)CCCn1cc(CC(P(=O)(O)O)P(=O)(O)O)nn1 (configuration not stated) was run?
Answer: 10 µM

Question: CC(C)=CCC/C(C)=C\CCn1cc(C=C(P(=O)(O)O)P(=O)(O)O)nn1 was tested. Which LED did it give?
Answer: 0.25 µM

Question: With CC(C)=CCCC(C)=CCn1cc(C=C(P(=O)(O)O)P(=O)(O)O)nn1 as the compound, how does the LED read?
Answer: 0.25 µM

Question: CC(C)=CCCC(C)=CCn1cc(C2CC2(P(=O)(O)O)P(=O)(O)O)nn1 (configuration not stated) was tested. Which LED did it give?
Answer: 0.5 µM

Question: Which LED does the source give for CC(C)=CCC/C(C)=C\CCn1cc(C2OC2(P(=O)(O)O)P(=O)(O)O)nn1 (configuration not stated) here?
Answer: 2.5 µM

Question: With CC(C)=CCCC(C)=CCCn1cc(CC(P(=O)(O)O)P(=O)(O)O)nn1 as the compound, how does the LED read?
Answer: 0.03 µM

Question: Which LED does the source give for CC(C)=CCC/C(C)=C/CCn1cc(C=C(P(=O)(O)O)P(=O)(O)O)nn1 here?
Answer: 0.25 µM

Question: CC(C)=CCCC(C)CCCn1cc(C=C(P(=O)(O)O)P(=O)(O)O)nn1 (configuration not stated) was tested. Which LED did it give?
Answer: 50 µM

biological target: T1, Geranylgeranyl pyrophosphate synthase (Homo sapiens); test: Inhibition of GGDPS in human RPMI-8226 cells assessed as lowest effective concentration required for increase in intracellular lambda chain level after 48 hrs by ELISA; type: cell-based; settings: not given

Question: CC(C)=CCC/C(C)=C/CCn1cc(C2CC2(P(=O)(OCOC(=O)C(C)(C)C)OCOC(=O)C(C)(C)C)P(=O)(OCOC(=O)C(C)(C)C)OCOC(=O)C(C)(C)C)nn1 (configuration not stated) was tested. Which LED did it give?
Answer: 5 µM

Question: With CC(C)=CCCC(C)CCCn1cc(CC(P(=O)(O)O)P(=O)(O)O)nn1 (configuration not stated) as the compound, how does the LED read?
Answer: 10 µM

Question: With CC(C)=CCC/C(C)=C\CCn1cc(C=C(P(=O)(O)O)P(=O)(O)O)nn1 as the compound, how does the LED read?
Answer: 0.25 µM

Question: How did the LED turn out when CC(C)=CCCC(C)=CCn1cc(C=C(P(=O)(O)O)P(=O)(O)O)nn1 was run?
Answer: 0.25 µM

Question: How did the LED turn out when CC(C)=CCCC(C)=CCn1cc(C2CC2(P(=O)(O)O)P(=O)(O)O)nn1 (configuration not stated) was run?
Answer: 0.5 µM

Question: How did the LED turn out when CC(C)=CCC/C(C)=C\CCn1cc(C2OC2(P(=O)(O)O)P(=O)(O)O)nn1 (configuration not stated) was run?
Answer: 2.5 µM

Question: CC(C)=CCCC(C)=CCCn1cc(CC(P(=O)(O)O)P(=O)(O)O)nn1 was tested. Which LED did it give?
Answer: 0.03 µM

Question: How did the LED turn out when CC(C)=CCC/C(C)=C/CCn1cc(C=C(P(=O)(O)O)P(=O)(O)O)nn1 was run?
Answer: 0.25 µM

Question: Which LED does the source give for CC(C)=CCCC(C)CCCn1cc(C=C(P(=O)(O)O)P(=O)(O)O)nn1 (configuration not stated) here?
Answer: 50 µM

biological target: T1, Geranylgeranyl pyrophosphate synthase (Homo sapiens); test: Inhibition of GGDPS in human MG-63 cells assessed as appearance of unmodified Rap1a band at 0.1 to 1 uM measured after 48 hrs by immunoblot analysis; type: cell-based; settings: dose 0.1-1 µM

Question: How did the inhibition turn out when CC(C)=CCC/C(C)=C\CCn1cc(C2OC2(P(=O)(O)O)P(=O)(O)O)nn1 (configuration not stated) was run?
Answer: Active

system: 143B; test: Cytotoxicity against human 143B cells assessed as reduction in cell viability up to 10 uM measured after 48 hrs by MTT assay; type: functional, cell-based; settings: not given

Question: How did the Activity turn out when CC(C)=CCC/C(C)=C\CCn1cc(C=C(P(=O)(O)O)P(=O)(O)O)nn1 was run?
Answer: Active

Question: With CC(C)=CCC/C(C)=C/CCn1cc(C=C(P(=O)(O)O)P(=O)(O)O)nn1 as the compound, how does the Activity read?
Answer: Active

biological target: T1, Geranylgeranyl pyrophosphate synthase (Homo sapiens); test: Inhibition of GGDPS in human MM1.S cells assessed as appearance of unmodified Rap1a band measured after 48 hrs by immunoblot analysis; type: cell-based; settings: not given

Question: For CC(C)=CCC/C(C)=C/CCn1cc(C2CC2(P(=O)(OCOC(=O)C(C)(C)C)OCOC(=O)C(C)(C)C)P(=O)(OCOC(=O)C(C)(C)C)OCOC(=O)C(C)(C)C)nn1 (configuration not stated), which inhibition is on record?
Answer: Not active; No Evidence Of Disruption Of Geranylgeranylation Was Observed

biological target: T1, Geranylgeranyl pyrophosphate synthase (Homo sapiens); test: Inhibition of GGDPS in human MM1.S cells assessed as lowest effective concentration required to show unmodified Rap1a band measured after 48 hrs by immunoblot analysis; type: cell-based; settings: not given

Question: For CC(C)=CCC/C(C)=C\CCn1cc(C=C(P(=O)(O)O)P(=O)(O)O)nn1, which LED is on record?
Answer: 0.25 µM

Question: For CC(C)=CCC/C(C)=C/CCn1cc(C=C(P(=O)(O)O)P(=O)(O)O)nn1, which LED is on record?
Answer: 0.25 µM

biological target: T1, Geranylgeranyl pyrophosphate synthase (Homo sapiens); test: Inhibition of GGDPS in human SAOS-2 cells assessed as appearance of unmodified Rap1a band at 0.1 to 1 uM measured after 48 hrs by immunoblot analysis; type: cell-based; settings: dose 0.1-1 µM

Question: CC(C)=CCC/C(C)=C\CCn1cc(C2OC2(P(=O)(O)O)P(=O)(O)O)nn1 (configuration not stated) was tested. Which inhibition did it give?
Answer: Active

biological target: T1, Geranylgeranyl pyrophosphate synthase (Homo sapiens); test: Inhibition of GGDPS in human SAOS-2 cells assessed as lowest effective concentration required to show unmodified Rap1a band measured after 48 hrs by immunoblot analysis; type: cell-based; settings: not given

Question: CC(C)=CCC/C(C)=C/CCn1cc(C2CC2(P(=O)(OCOC(=O)C(C)(C)C)OCOC(=O)C(C)(C)C)P(=O)(OCOC(=O)C(C)(C)C)OCOC(=O)C(C)(C)C)nn1 (configuration not stated) was tested. Which LED did it give?
Answer: 5000 nM

Question: Which LED does the source give for CC(C)=CCC/C(C)=C\CCn1cc(C=C(P(=O)(O)O)P(=O)(O)O)nn1 here?
Answer: 10 nM

Question: How did the LED turn out when CC(C)=CCC/C(C)=C/CCn1cc(C=C(P(=O)(O)O)P(=O)(O)O)nn1 was run?
Answer: 10 nM

system: RPMI-8226; test: Cytotoxicity against human RPMI-8226 cells assessed as reduction in cell viability up to 10 uM measured after 48 hrs by MTT assay; type: functional, cell-based; settings: not given

Question: With CC(C)=CCC/C(C)=C\CCn1cc(C=C(P(=O)(O)O)P(=O)(O)O)nn1 as the compound, how does the Activity read?
Answer: Active

Question: With CC(C)=CCC/C(C)=C/CCn1cc(C=C(P(=O)(O)O)P(=O)(O)O)nn1 as the compound, how does the Activity read?
Answer: Active

biological target: T2, Geranylgeranyl pyrophosphate synthase (Homo sapiens, UniProt O95749); test: Inhibition of recombinant GGDPS (unknown origin) using [14C] IPP and FPP as substrate preincubated for 10 mins followed by substrate addition and measured after 30 mins by scintillation counting method; settings: not given
T2 sequence (O95749 whole entry): T1 sequence (whole entry)

Question: For CC(C)=CCCC(C)CCCn1cc(CC(P(=O)(O)O)P(=O)(O)O)nn1 (configuration not stated), which IC50 is on record?
Answer: 25100 nM

Question: How did the IC50 turn out when CC(C)=CCC/C(C)=C\CCn1cc(C=C(P(=O)(O)O)P(=O)(O)O)nn1 was run?
Answer: 370 nM

Question: Which IC50 does the source give for CC(C)=CCC/C(C)=C\CCn1cc(C2OC2(P(=O)(O)O)P(=O)(O)O)nn1 (configuration not stated) here?
Answer: 2360 nM

Question: Which IC50 does the source give for CC(C)=CCC/C(C)=C/CCn1cc(C=C(P(=O)(O)O)P(=O)(O)O)nn1 here?
Answer: 400 nM

Question: CC(C)=CCCC(C)CCCn1cc(C=C(P(=O)(O)O)P(=O)(O)O)nn1 (configuration not stated) was tested. Which IC50 did it give?
Answer: > 100000 nM

biological target: T1, Geranylgeranyl pyrophosphate synthase (Homo sapiens); test: Inhibition of GGDPS in human MG-63 cells assessed as lowest effective concentration required to show unmodified Rap1a band measured after 48 hrs by immunoblot analysis; type: cell-based; settings: not given

Question: How did the LED turn out when CC(C)=CCC/C(C)=C/CCn1cc(C2CC2(P(=O)(OCOC(=O)C(C)(C)C)OCOC(=O)C(C)(C)C)P(=O)(OCOC(=O)C(C)(C)C)OCOC(=O)C(C)(C)C)nn1 (configuration not stated) was run?
Answer: 5 µM

Question: With CC(C)=CCC/C(C)=C\CCn1cc(C=C(P(=O)(O)O)P(=O)(O)O)nn1 as the compound, how does the LED read?
Answer: 0.25 µM

Question: How did the LED turn out when CC(C)=CCC/C(C)=C/CCn1cc(C=C(P(=O)(O)O)P(=O)(O)O)nn1 was run?
Answer: 0.25 µM

biological target: T1, Geranylgeranyl pyrophosphate synthase (Homo sapiens); test: Inhibition of GGDPS in human 143B cells assessed as appearance of unmodified Rap1a band at 0.1 to 1 uM measured after 48 hrs by immunoblot analysis; type: cell-based; settings: dose 0.1-1 µM

Question: Which inhibition does the source give for CC(C)=CCC/C(C)=C\CCn1cc(C2OC2(P(=O)(O)O)P(=O)(O)O)nn1 (configuration not stated) here?
Answer: Active

biological target: T1, Geranylgeranyl pyrophosphate synthase (Homo sapiens); test: Inhibition of GGDPS in human 143B cells assessed as lowest effective concentration required to show unmodified Rap1a band measured after 48 hrs by immunoblot analysis; type: cell-based; settings: not given

Question: Which LED does the source give for CC(C)=CCC/C(C)=C/CCn1cc(C2CC2(P(=O)(OCOC(=O)C(C)(C)C)OCOC(=O)C(C)(C)C)P(=O)(OCOC(=O)C(C)(C)C)OCOC(=O)C(C)(C)C)nn1 (configuration not stated) here?
Answer: 5 µM

Question: For CC(C)=CCC/C(C)=C\CCn1cc(C=C(P(=O)(O)O)P(=O)(O)O)nn1, which LED is on record?
Answer: 0.25 µM

Question: Which LED does the source give for CC(C)=CCC/C(C)=C/CCn1cc(C=C(P(=O)(O)O)P(=O)(O)O)nn1 here?
Answer: 0.25 µM
